Experiments:
[1] = tested on: morningglory; test: Test B pre/postemergence morningglory; assay type: in vivo, Ipomoea hederacea
How it was run: (§1)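 Herbicidal effect was estimated by eye on a ten-point control scale after plants spent twelve to sixteen days in a greenhouse following soil or foliar treatment. Foliar sprays targeted plants at one to four leaves; all doses were formulated in a non-phytotoxic solvent with surfactant.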

[2] = tested on: rape; test: Test B pre/postemergence rape; assay type: in vivo, Brassica napus
How it was run: as §1

[3] = tested on: wheat; test: Test B pre/postemergence wheat; assay type: in vivo, Triticum aestivum
How it was run: as §1

[4] = tested on: duck salad; test: Test B flood test duck salad; assay type: in vivo, Heteranthera limosa
How it was run: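 Each value is a visual injury score relative to controls, with 10 meaning complete control and 0 no effect. Evaluation took place twelve to sixteen days after the 2-leaf-stage plants were treated and kept in the greenhouse.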

[5] = tested on: winter wheat; test: Test E winter wheat; assay type: in vivo, Triticum aestivum; details: Postemergence; for Plant response rating, Wheat (winter): 0 to 100 scale
How it was run: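 For postemergence, plants at the 1- to 4-leaf stage, in a 60:40 mix of sandy loam and potting mix, treated with compound formulated in a surfactant-containing non-phytotoxic solvent. Visual assessment versus untreated controls followed roughly 21–28 days in the greenhouse.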

[6] = tested on: blackgrass; test: Test E blackgrass; assay type: in vivo, Alopecurus myosuroides; details: Preemergence; for Blackgrass plant response rating (0 to 100 scale): Rate 250 g/ha
[7] = tested on: green foxtail; test: Test E green foxtail; assay type: in vivo, Setaria viridis; details: Preemergence; for Green foxtail plant response rating (0 to 100 scale): Rate 250 g/ha
[8] = tested on: Italian ryegrass; test: Test E Italian ryegrass; assay type: in vivo, Lolium multiflorum; details: Preemergence; for I. Ryegrass plant response rating (0 to 100 scale): Rate 250 g/ha
[9] = tested on: winter wheat; test: Test E winter wheat; assay type: in vivo, Triticum aestivum; details: Preemergence; for Wheat (winter) plant response rating (0 to 100 scale): Rate 250 g/ha
[10] = tested on: wild oat; test: Test E wild oat; assay type: in vivo, Avena fatua; details: Preemergence; for Wild oat plant response rating (0 to 100 scale): Rate 250 g/ha
[11] = tested on: winter barley; test: Test E winter barley; assay type: in vivo, Hordeum vulgare; details: Preemergence; for Barley (winter) plant response rating (0 to 100 scale): Rate 250 g/ha
[12] = Preemergence, Rate 62 g/ha, scale of 0 to 10 where 0 is no effect and 10 is complete control
[13] = Preemergence, Rate 125 g/ha, 0 is no effect, 10 is complete control
[14] = Preemergence, Rate 250 g/ha, scale 0 to 10, 0 is no effect, 10 is complete control
[15] = Preemergence, Rate 500 g/ha, scale of 0 to 10 where 0 is no effect and 10 is complete control
[16] = Rate 62 g/ha, Postemergence, scale of 0 to 10 where 0 is no effect and 10 is complete control
[17] = Rate 125 g/ha, Postemergence, scale 0 to 10
[18] = Rate 500 g/ha, Postemergence, scale 0 to 10
[19] = Rate 62 g/ha, headed Pre-emergence (flood test species), scale 0 to 10 (0 no effect, 10 complete control)
[20] = Rate 125 g/ha, Pre-emergence, flood test species, scale 0 to 10 where 0 is no effect and 10 is complete control
[21] = Rate 250 g/ha, Pre-emergence, flood-test species, scale 0 to 10, 0 is no effect, 10 is complete control
[22] = Rate 500 g/ha, Pre-emergence, flood test species, scale 0 to 10 (0 no effect, 10 complete control)
[23] = Rate 1000 g/ha, 0 is no effect and 100 is complete control
[24] = Rate 500 g/ha, 0 is no effect, 100 is complete control
[25] = Rate 500 g/ha, 0 to 100 scale where 0 is no effect and 100 is complete control
[26] = Rate 1000 g/ha, 0 to 100 scale where 0 is no effect and 100 is complete control
[27] = Preemergence, Rate 250 g/ha, scale of 0 to 10 where 0 is no effect and 10 is complete control
[28] = Rate 125 g/ha, Preemergence, scale of 0 to 10 where 0 is no effect and 10 is complete control
[29] = Rate 1000 g/ha, 0 to 100 scale, 0 no effect, 100 complete control
[30] = Preemergence, Rate 31 g/ha, visual rating, scale 0 to 10 (0 no effect, 10 complete control)
[31] = Rate 31 g/ha, Postemergence, scale 0 to 10
[32] = Rate 500 g/ha, Postemergence, scale 0 to 10, 0 no effect, 10 complete control
[33] = Rate 31 g/ha, 0 to 100 scale, 0 no effect, 100 complete control
[34] = Rate 62 g/ha, 0 to 100 scale, 0 no effect, 100 complete control
[35] = Rate 125 g/ha, 0 to 100 scale (0 no effect, 100 complete control)

CC(C)N(C(=O)n1oc(=O)n(Cc2ccco2)c1=O)c1ccc(F)cc1F [Compound 208]
95: Plant response rating, I. Ryegrass [8, 26]
60: Plant response rating, Wheat (winter) [5, 23] | Plant response rating, Green foxtail [7, 25] | Plant response rating, I. Ryegrass [8, 25] | Plant response rating, Wild oat [10, 25]
70: Plant response rating, Green foxtail [7, 26]
40: Blackgrass plant response rating (0 to 100 scale) [6] | Green foxtail plant response rating (0 to 100 scale) [7] | Plant response rating, Barley (winter) [11, 25]
3: Morningglory plant response rating [1, 18]
50: Plant response rating, Wheat (winter) [5, 24] | I. Ryegrass plant response rating (0 to 100 scale) [8] | Wild oat plant response rating (0 to 100 scale) [10] | Plant response rating, Wild oat [10, 26] | Plant response rating, Barley (winter) [11, 26]
85: Plant response rating, Blackgrass [6, 25] | Plant response rating, Blackgrass [6, 26]
1: Morningglory plant response rating [1, 16] | Morningglory plant response rating [1, 17] | Plant response rating (0 to 10; 0 is no effect, 10 is complete control), Morningglory ([1]; Rate 250 g/ha, Postemergence)
30: Wheat (winter) plant response rating (0 to 100 scale) [9] | Plant response rating, Wheat (winter) [9, 25] | Plant response rating, Wheat (winter) [9, 26] | Barley (winter) plant response rating (0 to 100 scale) [11]
0: Morningglory plant response rating [1, 12] | Morningglory plant response rating (0 to 10 scale) [1, 13] | Morningglory plant response rating [1, 14] | Plant response rating, Morningglory [1, 15] | Rape plant response rating [2, 12] | Rape plant response rating (0 to 10 scale) [2, 13] | Rape plant response rating [2, 14] | Plant response rating, Rape [2, 15] | Rape plant response rating [2, 16] | Rape plant response rating [2, 17] | Plant response rating (0 to 10; 0 is no effect, 10 is complete control), Rape ([2]; Rate 250 g/ha, Postemergence) | Rape plant response rating [2, 18] | Wheat plant response rating [3, 12] | Wheat plant response rating [3, 14] | Plant response rating, Wheat [3, 15] | Wheat plant response rating [3, 16] | Wheat plant response rating [3, 17] | Plant response rating (0 to 10; 0 is no effect, 10 is complete control), Wheat ([3]; Rate 250 g/ha, Postemergence) | Ducksalad plant response rating [4, 19] | Ducksalad plant response rating [4, 20] | Ducksalad plant response rating [4, 21] | Ducksalad plant response rating [4, 22]

C#CCn1c(=O)on(C(=O)N(c2ccc(F)cc2)C(C)C)c1=O [Compound 212]
2: Morningglory plant response rating [1, 16] | Ducksalad plant response rating [4, 22]
6: Rape plant response rating [2, 27]
100: Plant response rating, Green foxtail [7, 29]
70: Plant response rating, Wheat (winter) [5, 24] | Plant response rating, I. Ryegrass [8, 25] | Plant response rating, I. Ryegrass [8, 29] | Plant response rating, Wild oat [10, 25] | Plant response rating, Wild oat [10, 29]
5: Wheat plant response rating [3, 27]
60: I. Ryegrass plant response rating (0 to 100 scale) [8] | Plant response rating, Wheat (winter) [9, 29] | Wild oat plant response rating (0 to 100 scale) [10]
75: Plant response rating, Wheat (winter) [5, 23]
4: Plant response rating (0 to 10; 0 is no effect, 10 is complete control), Morningglory ([1]; Rate 250 g/ha, Postemergence)
8: Morningglory plant response rating [1, 18] | Plant response rating, Rape [2, 15]
20: Blackgrass plant response rating (0 to 100 scale) [6] | Barley (winter) plant response rating (0 to 100 scale) [11]
65: Plant response rating, Blackgrass [6, 29] | Plant response rating, Green foxtail [7, 25]
0: Morningglory plant response rating [1, 12] | Morningglory plant response rating [1, 27] | Plant response rating, Morningglory [1, 15] | Morningglory plant response rating [1, 28] | Rape plant response rating [2, 12] | Rape plant response rating [2, 16] | Rape plant response rating [2, 17] | Rape plant response rating [2, 28] | Plant response rating (0 to 10; 0 is no effect, 10 is complete control), Rape ([2]; Rate 250 g/ha, Postemergence) | Wheat plant response rating [3, 12] | Wheat plant response rating [3, 16] | Wheat plant response rating [3, 17] | Wheat plant response rating [3, 28] | Plant response rating (0 to 10; 0 is no effect, 10 is complete control), Wheat ([3]; Rate 250 g/ha, Postemergence) | Ducksalad plant response rating [4, 19] | Ducksalad plant response rating [4, 20] | Ducksalad plant response rating [4, 21]
50: Plant response rating, Blackgrass [6, 25] | Plant response rating, Barley (winter) [11, 29]
40: Plant response rating, Barley (winter) [11, 25]
55: Green foxtail plant response rating (0 to 100 scale) [7]
7: Plant response rating, Wheat [3, 15]
3: Morningglory plant response rating [1, 17] | Rape plant response rating [2, 18]
30: Plant response rating, Wheat (winter) [9, 25]
10: Wheat (winter) plant response rating (0 to 100 scale) [9]

CC(C)N(C(=O)n1oc(=O)n(N(C)C)c1=O)c1ccccc1 [Compound 225]
50: Plant response rating, Wheat (winter) ([5]; Rate 31 g/ha, 0 no effect, 100 complete control) | Plant response rating, Blackgrass [6, 34] | Plant response rating, Green foxtail [7, 35] | Plant response rating, I. Ryegrass [8, 35] | Plant response rating, Wild oat [10, 35] | Plant response rating, Barley (winter) [11, 34] | Plant response rating, Barley (winter) [11, 35]
90: I. Ryegrass plant response rating (0 to 100 scale) [8]
70: Wheat (winter) plant response rating ([5]; Rate 250 g/ha, 0 to 100 scale where 0 is no effect and 100 is complete control) | Wheat (winter) plant response rating (0 to 100 scale) [9]
75: Plant response rating, Wheat (winter) ([5]; Rate 125 g/ha, 0 is no effect, 100 is complete control)
80: Blackgrass plant response rating (0 to 100 scale) [6]
8: Plant response rating, Morningglory [1, 15] | Wheat plant response rating [3, 27] | Plant response rating, Wheat [3, 15] | Wheat plant response rating [3, 32]
7: Plant response rating (0 to 10; 0 is no effect, 10 is complete control), Wheat ([3]; Rate 250 g/ha, Postemergence)
60: Plant response rating, Wheat (winter) ([5]; Rate 62 g/ha) | Plant response rating, Blackgrass [6, 35] | Plant response rating, Green foxtail [7, 34] | Green foxtail plant response rating (0 to 100 scale) [7] | Wild oat plant response rating (0 to 100 scale) [10] | Barley (winter) plant response rating (0 to 100 scale) [11]
65: Plant response rating, Wheat (winter) [9, 35]
30: Plant response rating, Blackgrass [6, 33] | Plant response rating, Green foxtail [7, 33] | Plant response rating, I. Ryegrass [8, 34] | Plant response rating, Wheat (winter) [9, 34] | Plant response rating, Wild oat [10, 33]
0: Morningglory plant response rating [1, 30] | Morningglory plant response rating [1, 12] | Rape plant response rating [2, 30] | Rape plant response rating [2, 12] | Rape plant response rating [2, 27] | Rape plant response rating [2, 31] | Rape plant response rating [2, 16] | Rape plant response rating [2, 17] | Rape plant response rating [2, 28] | Plant response rating (0 to 10; 0 is no effect, 10 is complete control), Rape ([2]; Rate 250 g/ha, Postemergence) | Wheat plant response rating [3, 30] | Ducksalad plant response rating [4, 19] | Ducksalad plant response rating [4, 20] | Ducksalad plant response rating [4, 21] | Ducksalad plant response rating [4, 22] | Plant response rating, Barley (winter) [11, 33]
2: Morningglory plant response rating [1, 31] | Morningglory plant response rating [1, 16] | Rape plant response rating [2, 32]
10: Plant response rating, Wheat (winter) [9, 33]
20: Plant response rating, I. Ryegrass [8, 33]
40: Plant response rating, Wild oat [10, 34]
3: Morningglory plant response rating [1, 17] | Wheat plant response rating [3, 16]
6: Plant response rating (0 to 10; 0 is no effect, 10 is complete control), Morningglory ([1]; Rate 250 g/ha, Postemergence) | Morningglory plant response rating [1, 32] | Plant response rating, Rape [2, 15] | Wheat plant response rating [3, 17] | Wheat plant response rating [3, 28]
4: Morningglory plant response rating [1, 27] | Morningglory plant response rating [1, 28]
5: Wheat plant response rating [3, 12]

Reference: patent US6737383B1, “Herbicidal oxadiazolidines” (priority 1999, dated 2004)
